In one experiment the target is T1, NK-1 (Homo sapiens, UniProt P25103).
T1 construct: 30 ul/well of a 2×U373 membrane preparation
In words: NK1 radioligand binding assay ([125I]Substance P, U373 membranes). The note with it: U373 cell membranes, 200 pM [125I]Substance P, 1 hour at room temperature. The method, boiled down: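 U373 cell membranes incubated 1 h at room temperature with [125I]Substance P at its Kd (added as 400 pM 2× solution) in Tris-Cl pH 7.5 with MgCl2, BSA, bacitracin and protease inhibitors. Bound radioligand collected on PEI-treated GF/B filters and counted. IC50 from four-parameter fit of triplicates; L-733,060 defined 100% inhibition.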

The target in the next experiment is hSERT (Homo sapiens, UniProt P31645). Description: SERT radioligand binding assay ([125I]RTI-55, HEK-hSERT membranes). The conditions noted are these: HEK-293 hSERT membranes, 260 pM [125I]RTI-55, 1 hour at room temperature; for pIC50: read-out: SERT IC50. The method, boiled down:
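Crude membranes from HEK-293 cells expressing hSERT (15 ug/ml, 2× stock) were incubated 1 hour at room temperature with [125I]RTI-55 (520 pM, 2× stock; at Kd) in pH 7.5 Tris, 120 mM NaCl, 5 mM KCl. Bound ligand was collected by GF/B filtration and scintillation counted. IC50 came from four-parameter fit, fluoxetine defining 100% inhibition.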

Drawing on patent US8026257B2 (Bristol-Myers Squibb Company, priority 2007, dated 2011), this text covers IC50 for 33 compounds.

What is called pIC50 is the IC50 on a negative log10 scale, so that one unit is a factor of ten. As usually defined, the IC50 is the concentration at which inhibition is half-maximal.

pIC50: −log10 of the molar value. Where two headings read alike, the source gives them in different places.

Chain of hSERT (P31645 whole entry): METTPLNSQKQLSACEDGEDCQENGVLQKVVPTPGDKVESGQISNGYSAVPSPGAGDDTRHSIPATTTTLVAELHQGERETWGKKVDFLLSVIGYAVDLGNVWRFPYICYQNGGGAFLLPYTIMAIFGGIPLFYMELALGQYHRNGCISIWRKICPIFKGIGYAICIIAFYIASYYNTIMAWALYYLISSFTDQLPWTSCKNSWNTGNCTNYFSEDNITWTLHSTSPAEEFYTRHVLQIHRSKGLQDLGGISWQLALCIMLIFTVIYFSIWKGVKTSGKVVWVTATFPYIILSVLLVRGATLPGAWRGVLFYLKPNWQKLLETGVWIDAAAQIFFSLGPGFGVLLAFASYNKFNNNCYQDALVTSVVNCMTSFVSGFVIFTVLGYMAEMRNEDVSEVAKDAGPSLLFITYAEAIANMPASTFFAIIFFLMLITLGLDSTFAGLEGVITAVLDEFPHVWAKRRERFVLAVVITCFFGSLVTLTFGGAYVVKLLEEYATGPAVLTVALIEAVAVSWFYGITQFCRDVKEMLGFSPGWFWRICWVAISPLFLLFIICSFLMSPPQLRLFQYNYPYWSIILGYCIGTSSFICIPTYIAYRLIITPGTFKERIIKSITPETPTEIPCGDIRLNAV
T1 sequence (P25103 whole entry): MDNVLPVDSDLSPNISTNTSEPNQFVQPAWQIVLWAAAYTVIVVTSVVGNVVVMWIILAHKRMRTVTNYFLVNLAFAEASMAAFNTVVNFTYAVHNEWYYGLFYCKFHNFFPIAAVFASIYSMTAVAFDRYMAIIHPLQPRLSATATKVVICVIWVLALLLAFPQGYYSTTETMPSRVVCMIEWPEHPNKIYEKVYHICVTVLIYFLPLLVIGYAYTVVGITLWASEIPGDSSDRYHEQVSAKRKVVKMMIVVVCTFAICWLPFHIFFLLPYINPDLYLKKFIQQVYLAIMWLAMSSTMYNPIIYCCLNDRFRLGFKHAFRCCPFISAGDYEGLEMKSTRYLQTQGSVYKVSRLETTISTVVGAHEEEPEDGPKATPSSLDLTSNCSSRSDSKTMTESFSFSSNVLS

With `CC(OCC1(c2ccccc2)CCN(C)CC1)c1cc(Br)cc2c1ncn2CC1CC1` (single isomer, unassigned) [Example 130], the pIC50 at NK-1 is < 6.52; on hSERT it was 7.00 to 11.00.

With `CC(OCC1(c2ccccc2)CCN(C)CC1)c1cc(Br)cc2c1ncn2CC1CC1` (single isomer, unassigned) [Example 131], the negative-log IC50 (pIC50) on NK-1 and at hSERT was 7.00 to 11.00 each time.

On to `CC(OCC1(c2ccc(F)cc2)CCN(C)CC1)c1cc(C(F)(F)F)cc2c1ncn2CC1CC1` (single isomer, unassigned) [Example 133], for which the negative-log IC50 (pIC50) on NK-1 is < 6.52; at hSERT it was 7.00 to 11.00.

Consider `CC(OCC1(c2ccc(F)cc2)CCN(C)CC1)c1cc(C(F)(F)F)cc2c1ncn2CC1CC1` (single isomer, unassigned) [Example 134], for which the pIC50 at NK-1 and at hSERT was 7.00 to 11.00 in each case.

`CCn1cnc2c(C(C)OCC3(c4ccc(F)cc4)CCN(C)CC3)cc(C(F)(F)F)cc21` (single isomer, unassigned) [Example 135]: the figures for the pIC50 at NK-1 and at hSERT were < 6.52 and 7.00 to 11.00, respectively.

With `CCn1cnc2c(C(C)OCC3(c4ccc(F)cc4)CCN(C)CC3)cc(C(F)(F)F)cc21` (single isomer, unassigned) [Example 136], the negative-log IC50 (pIC50) at NK-1 and on hSERT was 7.00 to 11.00 each time.

`CCn1cnc2c(C(C)OCC3(c4ccccc4)CCN(C)CC3)cc(C(F)(F)F)cc21` (single isomer, unassigned) [Example 137]: the values for the negative logarithm of the IC50 (pIC50) at NK-1 and at hSERT were 6.52 to 7.00 and 7.00 to 11.00, respectively.

Take `Cc1cc(COCC2(c3ccccc3)CCNCC2)cc2cn[nH]c12` [Example 1, 7-Methyl-5-(((4-phenylpiperidin-4-yl)methoxy)methyl)-1H-indazole]: the negative-log IC50 (pIC50) was < 6.52 on NK-1 and 7.00 to 11.00 on hSERT.

For the compound `Brc1cc(COCC2(c3ccccc3)CCNCC2)c2[nH]ncc2c1` [Example 2, 5-Bromo-7-(((4-phenylpiperidin-4-yl)methoxy)methyl)-1H-indazole], the negative-log IC50 (pIC50) at NK-1 and on hSERT was 7.00 to 11.00 throughout.

As for `N#Cc1ccc(-c2cc(COCC3(c4ccccc4)CCNCC3)c3[nH]ncc3c2)cc1` [Example 3, 4-(7-(((4-Phenylpiperidin-4-yl)methoxy)methyl)-1H-indazol-5-yl)benzonitrile], the pIC50 at NK-1 and at hSERT was 7.00 to 11.00 in each case.

Take `Cn1ncc2cc(-c3ccc(C#N)cc3)cc(COCC3(c4ccccc4)CCNCC3)c21` [Example 4, 4-(1-Methyl-7-(((4-phenylpiperidin-4-yl)methoxy)methyl)-1H-indazol-5-yl)benzonitrile]: the negative logarithm of the IC50 (pIC50) is 6.52 to 7.00 on NK-1 and 7.00 to 11.00 at hSERT.

Turning to `Cn1cc2cc(-c3ccc(C#N)cc3)cc(COCC3(c4ccccc4)CCNCC3)c2n1` [Example 5, 4-(2-Methyl-7-(((4-phenylpiperidin-4-yl)methoxy)methyl)-2H-indazol-5-yl)benzonitrile], the negative logarithm of the IC50 (pIC50) on NK-1 was < 6.52; at hSERT it was 7.00 to 11.00.

`Cc1cc(COCC2(c3ccccc3)CCNCC2)c2[nH]ncc2c1` [Example 6, 5-Methyl-7-(((4-phenylpiperidin-4-yl)methoxy)methyl)-1H-indazole]: the negative-log IC50 (pIC50) on NK-1 and on hSERT was 7.00 to 11.00 each time.

As to `Cc1cc(COCC2(c3ccccc3)CCNCC2)c2c(cnn2C)c1` [Example 7, 1,5-Dimethyl-7-(((4-phenylpiperidin-4-yl)methoxy)methyl)-1H-indazole], the pIC50 at NK-1 and on hSERT was 7.00 to 11.00 throughout.

On to `Cc1cc(COCC2(c3ccccc3)CCNCC2)c2nn(C)cc2c1` [Example 8, 2,5-Dimethyl-7-(((4-phenylpiperidin-4-yl)methoxy)methyl)-2H-indazole], for which the negative-log IC50 (pIC50) at NK-1 and on hSERT was 7.00 to 11.00 throughout.

With `FC(F)(F)c1cc(COCC2(c3ccccc3)CCNCC2)c2[nH]ncc2c1` [Example 9, 7-(((4-Phenylpiperidin-4-yl)methoxy)methyl)-5-(trifluoromethyl)-1H-indazole], the pIC50 on NK-1 and at hSERT was 7.00 to 11.00 in each case.

For `CN1CCC(COCc2cc(C(F)(F)F)cc3cn[nH]c23)(c2ccccc2)CC1` [Example 10, 7-(((1-Methyl-4-phenylpiperidin-4-yl)methoxy)methyl)-5-(trifluoromethyl)-1H-indazole], the negative-log IC50 (pIC50) on NK-1 and on hSERT was 7.00 to 11.00 each time.

Turning to `Cn1ncc2cc(C(F)(F)F)cc(COCC3(c4ccccc4)CCNCC3)c21` [Example 11, 1-Methyl-7-(((4-phenylpiperidin-4-yl)methoxy)methyl)-5-(trifluoromethyl)-1H-indazole], the negative-log IC50 (pIC50) on NK-1 and on hSERT was 7.00 to 11.00 throughout.

In the case of `Cn1cc2cc(C(F)(F)F)cc(COCC3(c4ccccc4)CCNCC3)c2n1` [Example 12, 2-Methyl-7-(((4-phenylpiperidin-4-yl)methoxy)methyl)-5-(trifluoromethyl)-2H-indazole], the pIC50 on NK-1 and on hSERT was 7.00 to 11.00 each time.

In the case of `CN1CCC(COCc2cc(C(F)(F)F)cc3cnn(C)c23)(c2ccccc2)CC1` [Example 13, 1-Methyl-7-(((1-methyl-4-phenylpiperidin-4-yl)methoxy)methyl)-5-(trifluoromethyl)-1H-indazole], the negative-log IC50 (pIC50) on NK-1 and on hSERT was 7.00 to 11.00 in each case.

On to `CN1CCC(COCc2cc(C(F)(F)F)cc3cn(C)nc23)(c2ccccc2)CC1` [Example 14, 2-Methyl-7-(((1-methyl-4-phenylpiperidin-4-yl)methoxy)methyl)-5-(trifluoromethyl)-2H-indazole], for which the pIC50 on NK-1 and on hSERT was 7.00 to 11.00 each time.

`Fc1ccc(C2(COCc3cc(C(F)(F)F)cc4cn[nH]c34)CCNCC2)cc1` [Example 15, 7-(((4-(4-Fluorophenyl)piperidin-4-yl)methoxy)methyl)-5-(trifluoromethyl)-1H-indazole]: the negative-log IC50 (pIC50) on NK-1 and at hSERT was 7.00 to 11.00 each time.

As to `CN1CCC(COCc2cc(C(F)(F)F)cc3cn[nH]c23)(c2ccc(F)cc2)CC1` [Example 16, 7-(((4-(4-Fluorophenyl)-1-methylpiperidin-4-yl)methoxy)methyl)-5-(trifluoromethyl)-1H-indazole], the pIC50 on NK-1 and at hSERT was 7.00 to 11.00 each time.

Regarding `Cn1ncc2cc(C(F)(F)F)cc(COCC3(c4ccc(F)cc4)CCNCC3)c21` [Example 17, 7-(((4-(4-Fluorophenyl)piperidin-4-yl)methoxy)methyl)-1-methyl-5-(trifluoromethyl)-1H-indazole], the pIC50 at NK-1 and at hSERT was 7.00 to 11.00 each time.

As to `Cn1cc2cc(C(F)(F)F)cc(COCC3(c4ccc(F)cc4)CCNCC3)c2n1` [Example 18, 7-(((4-(4-Fluorophenyl)piperidin-4-yl)methoxy)methyl)-2-methyl-5-(trifluoromethyl)-2H-indazole], the negative-log IC50 (pIC50) at NK-1 and at hSERT was 7.00 to 11.00 throughout.

In the case of `CN1CCC(COCc2cc(C(F)(F)F)cc3cnn(C)c23)(c2ccc(F)cc2)CC1` [Example 19, 7-(((4-(4-Fluorophenyl)-1-methylpiperidin-4-yl)methoxy)methyl)-1-methyl-5-(trifluoromethyl)-1H-indazole], the pIC50 on NK-1 and on hSERT was 7.00 to 11.00 in each case.

For `c1ccc(C2(COCc3cccc4cn[nH]c34)CCNCC2)cc1` [Example 34, 7-(((4-Phenylpiperidin-4-yl)methoxy)methyl)-1H-indazole], the negative logarithm of the IC50 (pIC50) was 6.52 to 7.00 at NK-1 and 7.00 to 11.00 on hSERT.

On to `FC(F)(F)c1cc(COCC2(c3ccccc3)CCNCC2)c2[nH]nc(C3CC3)c2c1` [Example 35, 3-Cyclopropyl-7-(((4-phenylpiperidin-4-yl)methoxy)methyl)-5-(trifluoromethyl)-1H-indazole], for which the pIC50 on NK-1 and at hSERT was 7.00 to 11.00 throughout.

For `FC(F)(F)c1cc(COCC2(c3ccccc3)CCNCC2)c2[nH]nc(Br)c2c1` [Example 36, 3-Bromo-7-(((4-phenylpiperidin-4-yl)methoxy)methyl)-5-(trifluoromethyl)-1H-indazole], the pIC50 on NK-1 and at hSERT was 7.00 to 11.00 in each case.

As to `Cc1n[nH]c2c(COCC3(c4ccccc4)CCNCC3)cc(C(F)(F)F)cc12` [Example 37, 3-Methyl-7-(((4-phenylpiperidin-4-yl)methoxy)methyl)-5-(trifluoromethyl)-1H-indazole], the negative logarithm of the IC50 (pIC50) at NK-1 and at hSERT was 7.00 to 11.00 throughout.

As for `c1ccc(C2(COCc3cc(C4CC4)cc4cn[nH]c34)CCNCC2)cc1` [Example 45, 5-Cyclopropyl-7-(((4-phenylpiperidin-4-yl)methoxy)methyl)-1H-indazole], the negative-log IC50 (pIC50) at NK-1 and on hSERT was 7.00 to 11.00 throughout.

Turning to `CC(OCC1(c2ccc(F)cc2)CCN(C)CC1)c1cc(N(C)C)cc2cn[nH]c12` (stereo not drawn) [Example 51, 7-(1-((4-(4-Fluorophenyl)-1-methylpiperidin-4-yl)methoxy)ethyl)-N,N-dimethyl-1H-indazol-5-amine], the negative logarithm of the IC50 (pIC50) on NK-1 and at hSERT was 7.00 to 11.00 each time.

For the compound `CN1CCC(COCc2cc(-c3ccc(C#N)cc3)cc3cnn(C4CC4)c23)(c2ccccc2)CC1` [Example 65, 4-(1-Cyclopropyl-7-(((1-methyl-4-phenylpiperidin-4-yl)methoxy)methyl)-1H-indazol-5-yl)benzonitrile], the negative logarithm of the IC50 (pIC50) at NK-1 is 6.52 to 7.00. In addition, on hSERT (SERT IC50 (nM)), the IC50 fell in the range of 0.01 to 100 nM.
